Like-named read-outs stand apart in the source and are kept apart here.
Experiments:
SMN2 mRNA = assay: RT-qPCR splicing assay, SMN2 canonical junction (CJ) mRNA; assay type: cell-based, human; conditions: Homo sapiens; canonical junction qPCR panel, Table 5; read-out: SMN2 (decrease in CJ mRNA levels, IC50)
Method in brief: (§1)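 Canonical-junction transcript levels in compound-treated A673 or K562 cells (24 h, up to 10 uM final) were determined from lysates by RT-qPCR with housekeeping-gene normalization.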

HTT mRNA = assay: RT-qPCR splicing assay, HTT canonical junction (CJ) and alternative junction (AJ) mRNA; assay type: cell-based, human; conditions: Homo sapiens; for AC50: increase in HTT alternative junction (AJ) mRNA, read-out: HTT AJ AC50
Method in brief: (§2)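 A673 cells (normalized to PPIA) or K562 cells (normalized to GAPDH or GUSB) were treated 24 h at 37 °C with an 11-point 3-fold dilution series, top 10 uM, DMSO ≤0.25%. Cell lysates went to one-step RT-qPCR measuring canonical- and alternative-junction MYB or HTT transcripts.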

MYB mRNA = assay: RT-qPCR splicing assay, MYB canonical junction (CJ) and alternative junction (AJ) mRNA; assay type: cell-based, human; conditions: Homo sapiens; for AC50: increase in MYB alternative junction (AJ) mRNA, read-out: MYB AJ AC50
Method in brief: as §2

[1] = test system: K562 (human chronic myelogenous leukemia) cells; assay: Cell Titer Glo 2.0 cell viability assay; assay type: cell-based; conditions: K562 cells, 72 hours, Cell Titer Glo 2.0, read-out: K562 GI50
Description: Compounds described herein were screened for toxicity in K562 (human chronic myelogenous leukemia) cells using a Cell Titer Glo 2.0 assay.
Cells were plated at 500 cells/well (K562 cells) in 45 μL of IMDM supplemented with 1000 FBS in a 384-well opaque plate. Wells containing only medium were used as a blank control. Test compounds (e.g., compounds ofFormula (I), (II), (III), (IV), (V), (VI), (VII), (VIII), and (IX)) were first serially diluted in DMSO then diluted 1:100 with IMDM+10% FBS. The final concentration of DMSO was 0.1% in each well. The cells were incubated for 72 hours at 37° C. and 500 CO2 before assaying with Cell Titer Glo 2.0 reagent.

Target C = assay: RT-qPCR splicing assay panel, Target C canonical junction (CJ) mRNA; assay type: cell-based, human; conditions: Homo sapiens; canonical junction qPCR panel, Table 5; read-out: Target C (decrease in CJ mRNA levels, IC50)
Method in brief: as §1

[2] = decrease in HTT canonical junction (CJ) mRNA, RT-qPCR, read-out: HTT CJ IC50
[3] = canonical junction qPCR panel, Table 5, read-out: HTT (decrease in CJ mRNA levels, IC50)
[4] = canonical junction qPCR panel, Table 5, read-out: MYB (decrease in CJ mRNA levels, IC50)
[5] = decrease in MYB canonical junction (CJ) mRNA, RT-qPCR, read-out: MYB CJ IC50

Structure (SMILES)	IC50 (SMN2 mRNA)	IC50 (HTT mRNA; [2])	IC50 (HTT mRNA; [3])	IC50 (MYB mRNA; [4])	IC50 (MYB mRNA; [5])	GI50 ([1]; Homo sapiens, K562, 72 h)	IC50 (Target C)	GI50 [1]	AC50 (HTT mRNA; RT-qPCR)	AC50 (MYB mRNA; RT-qPCR)
Cc1cn2cc(-c3nc(C)c4c(=O)n([C@H]5CCN[C@@H](C)C5)ccc4n3)cc(F)c2n1 [Compound 1501, 2-(8-fluoro-2-methyl-imidazo[1,2-a]pyridin-6-yl)-4-methyl-6-[(2S,4S)-2-methyl-4-piperidyl]pyrido[4,3-d]pyrimidin-5-one]	< 0.1 µM	0.1 to 1 µM	0.1 to 1 µM	< 0.1 µM	< 0.1 µM	0.1 to 1 µM	0.1 to 1 µM	–	0.1 to 1 µM	< 0.1 µM
Cc1cn2cc(-c3ccc4c(=O)n(C5C[C@H](C)N[C@@H](C)C5)ccc4n3)cc(F)c2n1 (stereo partly drawn) [Compound 1502, 6-[(2S,6S)-2,6-dimethyl-4-piperidyl]-2-(8-fluoro-2-methyl-imidazo[1,2-a]pyridin-6-yl)-1,6-naphthyridin-5-one]	< 0.1 µM	1 to 10 µM	1 to 10 µM	0.1 to 1 µM	0.1 to 1 µM	0.1 to 1 µM	1 to 10 µM	–	1 to 10 µM	0.1 to 1 µM
C[C@H]1C[C@@H](n2ccc3nc(-c4cc(F)c5nn(C)cc5c4)ncc3c2=O)CCN1 [Compound 1503, 2-(7-fluoro-2-methyl-indazol-5-yl)-6-[(2S,4S)-2-methyl-4-piperidyl]pyrido[4,3-d]pyrimidin-5-one]	< 0.1 µM	0.1 to 1 µM	0.1 to 1 µM	0.1 to 1 µM	< 0.1 µM	0.1 to 1 µM	0.1 to 1 µM	–	0.1 to 1 µM	0.1 to 1 µM
Cc1cn2nc(-c3ccc4c(=O)n(C56CCC(N)(CC5)C6)ccc4n3)cc(C)c2n1 [Compound 1504, 6-(4-aminonorbornane-1-yl)-2-(2,8-dimethylimidazo[1,2-b]pyridazin-6-yl)-1,6-naphthyridin-5-one]	< 0.1 µM	1 to 10 µM	0.1 to 1 µM	< 0.1 µM	< 0.1 µM	0.1 to 1 µM	1 to 10 µM	–	0.1 to 1 µM	< 0.1 µM
Cc1cn2nc(-c3ccc4c(=O)n([C@@H]5CCNC6(CCC6)C5)ccc4n3)cc(C)c2n1 [Compound 1517]	< 0.1 µM	0.1 to 1 µM	0.1 to 1 µM	0.1 to 1 µM	0.1 to 1 µM	1 to 10 µM	1 to 10 µM	–	0.1 to 1 µM	0.1 to 1 µM
Cc1cn2nc(-c3ccc4c(=O)n([C@H]5CCNC6(CCC6)C5)ccc4n3)cc(C)c2n1 [Compound 1518]	< 0.1 µM	0.1 to 1 µM	0.1 to 1 µM	0.1 to 1 µM	< 0.1 µM	0.1 to 1 µM	0.1 to 1 µM	–	0.1 to 1 µM	0.1 to 1 µM
Cc1c(O)c(-c2ccc3c(=O)n([C@H]4CCN[C@@H](C)C4)ccc3n2)cc2cn(C)nc12 [Compound 1520, 2-(6-hydroxy-2,7-dimethyl-indazol-5-yl)-6-[(2S,4S)-2-methyl-4-piperidyl]-1,6-naphthyridin-5-one]	< 0.1 µM	0.1 to 1 µM	< 0.1 µM	< 0.1 µM	< 0.1 µM	< 0.1 µM	0.1 to 1 µM	–	< 0.1 µM	< 0.1 µM
Cc1c(O)c(-c2ncc3c(=O)n([C@H]4CC[C@H](N)C4)ccc3n2)cc2cn(C)nc12 [Compound 1521]	< 0.1 µM	1 to 10 µM	0.1 to 1 µM	0.1 to 1 µM	0.1 to 1 µM	–	1 to 10 µM	0.1 to 1 µM	0.1 to 1 µM	0.1 to 1 µM
CNC12CCC(n3ccc4nc(-c5cc6cn(C)nc6c(C)c5O)ccc4c3=O)(CC1)C2 [Compound 1522]	< 0.1 µM	0.1 to 1 µM	0.1 to 1 µM	< 0.1 µM	< 0.1 µM	< 0.1 µM	0.1 to 1 µM	–	0.1 to 1 µM	< 0.1 µM
Cc1cn2cc(-c3nc(C)c4c(=O)n(C5C[C@H](C)N[C@@H](C)C5)ccc4n3)cc(F)c2n1 (stereo partly drawn) [Compound 1523]	< 0.1 µM	1 to 10 µM	0.1 to 1 µM	0.1 to 1 µM	< 0.1 µM	0.1 to 1 µM	1 to 10 µM	–	0.1 to 1 µM	0.1 to 1 µM
Cc1cn2cc(-c3cc(C)c4c(=O)n(C5CCNCC5)ccc4n3)cc(F)c2n1 [Compound 1524, 2-(8-fluoro-2-methyl-imidazo[1,2-a]pyridin-6-yl)-4-methyl-6-(4-piperidyl)-1,6-naphthyridin-5-one]	< 0.1 µM	0.1 to 1 µM	0.1 to 1 µM	0.1 to 1 µM	< 0.1 µM	0.1 to 1 µM	0.1 to 1 µM	–	0.1 to 1 µM	0.1 to 1 µM
CNC12CCC(n3ccc4nc(-c5cc6cn(C)nc6cc5O)ccc4c3=O)(CC1)C2 [Compound 1525]	< 0.1 µM	1 to 10 µM	1 to 10 µM	< 0.1 µM	< 0.1 µM	< 0.1 µM	> 10 µM	–	1 to 10 µM	< 0.1 µM
Cc1c(O)c(-c2ccc3c(=O)n(C45CCC(NC(C)C)(CC4)C5)ccc3n2)cc2cn(C)nc12 [Compound 1526]	< 0.1 µM	> 10 µM	1 to 10 µM	< 0.1 µM	< 0.1 µM	0.1 to 1 µM	> 10 µM	–	1 to 10 µM	< 0.1 µM
Cc1cn2nc(-c3ccc4c(=O)n([C@H]5CCNC6(CCC6)C5)ncc4n3)cc(C)c2n1 [Compound 1544, 6-[(8S)-5-azaspiro[3.5]nonan-8-yl]-2-(2,8-dimethylimidazo[1,2-b]pyridazin-6-yl)pyrido[2,3-d]pyridazin-5-one]	0.1 to 1 µM	0.1 to 1 µM	0.1 to 1 µM	0.1 to 1 µM	0.1 to 1 µM	0.1 to 1 µM	0.1 to 1 µM	–	0.1 to 1 µM	0.1 to 1 µM

The next lines start with results.

IC50 (SMN2 mRNA)	IC50 (HTT mRNA; [2])	IC50 (HTT mRNA; [3])	IC50 (MYB mRNA; [4])	IC50 (MYB mRNA; [5])	GI50 ([1]; Homo sapiens, K562, 72 h)	IC50 (Target C)	GI50 [1]	Structure (SMILES)	AC50 (HTT mRNA; RT-qPCR)	AC50 (MYB mRNA; RT-qPCR)
0.1 to 1 µM	1 to 10 µM	0.1 to 1 µM	1 to 10 µM	1 to 10 µM	1 to 10 µM	1 to 10 µM	–	Cc1cn2nc(-c3ccc4c(=O)n(C5CCNC6(CC6)C5)ncc4n3)cc2c(C)n1 (stereo not drawn) [Compound 1547, 6-(4-azaspiro[2.5]octan-7-yl)-2-(4,6-dimethylpyrazolo[1,5-a]pyrazin-2-yl)pyrido[2,3-d]pyridazin-5-one]	0.1 to 1 µM	1 to 10 µM
0.1 to 1 µM	0.1 to 1 µM	0.1 to 1 µM	0.1 to 1 µM	0.1 to 1 µM	0.1 to 1 µM	0.1 to 1 µM	–	Cc1cn2nc(-c3ccc4c(=O)n([C@@H]5CCNC6(CC6)C5)ncc4n3)cc2c(C)n1 [Compound 1548, 6-[(7R)-4-azaspiro[2.5]octan-7-yl]-2-(4,6-dimethylpyrazolo[1,5-a]pyrazin-2-yl)pyrido[2,3-d]pyridazin-5-one]	0.1 to 1 µM	0.1 to 1 µM
0.1 to 1 µM	0.1 to 1 µM	0.1 to 1 µM	1 to 10 µM	1 to 10 µM	1 to 10 µM	1 to 10 µM	–	Cc1cn2nc(-c3ccc4c(=O)n([C@H]5CCNC6(CC6)C5)ncc4n3)cc2c(C)n1 [Compound 1549, 6-[(7S)-4-azaspiro[2.5]octan-7-yl]-2-(4,6-dimethylpyrazolo[1,5-a]pyrazin-2-yl)pyrido[2,3-d]pyridazin-5-one]	0.1 to 1 µM	1 to 10 µM
0.1 to 1 µM	0.1 to 1 µM	0.1 to 1 µM	0.1 to 1 µM	0.1 to 1 µM	1 to 10 µM	0.1 to 1 µM	–	Cc1cn2nc(-c3ccc4c(=O)n([C@H]5CCN[C@@H](C6CC6)C5)ncc4n3)cc(C)c2n1 [Compound 1550]	0.1 to 1 µM	0.1 to 1 µM
< 0.1 µM	0.1 to 1 µM	0.1 to 1 µM	0.1 to 1 µM	0.1 to 1 µM	0.1 to 1 µM	0.1 to 1 µM	–	Cc1cn2nc(-c3ccc4c(=O)n([C@@H]5CCN[C@@H](C6CC6)C5)ncc4n3)cc(C)c2n1 [Compound 1551]	0.1 to 1 µM	0.1 to 1 µM
1 to 10 µM	1 to 10 µM	1 to 10 µM	1 to 10 µM	1 to 10 µM	1 to 10 µM	1 to 10 µM	–	CN1CCN(c2ccc3ncn(-c4cc(F)c5nn(C)cc5c4)c(=O)c3c2)CC1 [Compound 2194]	1 to 10 µM	1 to 10 µM
